Experimental data as given in patent publication US7407946B2, “Quinazoline compounds” (AstraZeneca AB, priority 2002, dated 2008).

Tests used:
Aurora-A = target: T1, Aurora-A (Homo sapiens, UniProt O14965); assay: In vitro Aurora-A kinase inhibition test; format: biochemical
T1 construct: 6 histidine residues, spacer region and rTEV protease cleavage site (pFastBac HTc) (N); made in house; host or cells: Spodoptera frugiperda Sf21 insect cells (baculovirus)
T1 sequence (O14965 1-403): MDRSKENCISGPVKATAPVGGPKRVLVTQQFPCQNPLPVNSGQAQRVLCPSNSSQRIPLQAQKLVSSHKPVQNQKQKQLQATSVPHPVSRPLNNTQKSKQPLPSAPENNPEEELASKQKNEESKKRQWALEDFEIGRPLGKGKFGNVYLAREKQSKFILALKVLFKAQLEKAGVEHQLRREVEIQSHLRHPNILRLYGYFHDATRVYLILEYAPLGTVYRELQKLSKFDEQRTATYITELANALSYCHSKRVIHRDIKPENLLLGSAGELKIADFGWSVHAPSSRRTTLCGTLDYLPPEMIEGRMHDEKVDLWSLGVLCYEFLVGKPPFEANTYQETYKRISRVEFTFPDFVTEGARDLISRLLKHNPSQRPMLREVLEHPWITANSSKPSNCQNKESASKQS

Aurora-B = target: T2, Aurora-B (Homo sapiens, UniProt Q96GD4); assay: In vitro Aurora-B kinase inhibition test; format: biochemical; settings: recombinant Aurora-B, [γ33P]ATP, peptide substrate, 60 minutes at room temperature; read-out: concentration giving 50% inhibition of enzyme activity
T2 construct: 6-histidine; made in house; host or cells: Spodoptera frugiperda Sf21 insect cells (baculovirus)
Description: (b) In Vitro Aurora-B Kinase Inhibition Test
This assay determines the ability of a test compound to inhibit serine-threonine kinase activity. DNA encoding Aurora-B may be obtained by total gene synthesis or by cloning. This DNA may then be expressed in a suitable expression system to obtain polypeptide with serine-threonine kinase activity. In the case of Aurora-B, the coding sequence was isolated from cDNA by polymerase chain reaction (PCR) and cloned into the pFastBac system in a manner similar to that described above for Aurora-A (i.e. to direct expression of a 6-histidine tagged Aurora-B protein).
For the large scale expression of Aurora-B kinase activity, Sf21 insect cells were grown at 28° C. in TC100 medium supplemented with 10% foetal calf serum (Viralex) and 0.2% F68 Pluronic (Sigma) on a Wheaton roller rig at 3 r.p.m. When the cell density reached 1.2×10^6 cells ml^−1 they were infected with plaque-pure Aurora-B recombinant virus at a multiplicity of infection of 1 and harvested 48 hours later. All subsequent purification steps were performed at 4° C. […]

SW620 = assay: In vitro cell proliferation assay (BrdU incorporation); format: cell-based; settings: Homo sapiens, SW-620; SW620, 48 hours with compound, 2 hour BrdU labelling; read-out: active at (concentration giving 50% inhibition of BrdU incorporation)
Description: (c) In Vitro Cell Proliferation Assay
This and other assays can be used to determine the ability of a test compound to inhibit the growth of adherent mammalian cell lines, for example the human tumour cell line SW620 (ATCC CCL-227). This assay determines the ability of at test compound to inhibit the incorporation of the thymidine analogue, 5′-bromo-2′-deoxy-uridine (BrdU) into cellular DNA. SW620 or other adherent cells were typically seeded at 1×10^5 cells per well in L-15 media (GIBCO) plus 5% foetal calf serum, 1% L-glutamine (100 μl/well) in 96 well tissue culture treated 96 well plates (Costar) and allowed to adhere overnight. […] The optical density of the wells was then determined at 690 nm wavelength using a Titertek Multiscan plate reader. […]

SW620 cells = assay: In vitro cell cycle analysis assay; format: cell-based, human; settings: 24 hours with compound, DNA content by FACS
Experimental: (d) In Vitro Cell Cycle Analysis Assay
This assay determines the ability of a test compound to arrest cells in specific phases of the cell cycle. Many different mammalian cell lines could be used in this assay and SW620 cells are included here as an example. SW620 cells were seeded at 7×10^5 cells per T25 flask (Costar) in 5 ml L-15 (5% FCS, 1% L-glutamine). Flasks were then incubated overnight in a humidified 37° C. incubator with 5% CO2. The following day, 5 μl of L-15 (5% FCS, 1% L-glutamine) carrying the appropriate concentration of test compound solubilised in DMSO was added to the flask. A no compound control treatments was also included (0.5% DMSO). The cells were then incubated for a defined time (24 hours) with compound. […]
Each sample was then syringed 10 times using 21-guage needle. The samples were then transferred to LPS tubes and DNA content per cell analysed by Fluorescence activated cell sorting (FACS) using a FACScan flow cytometer (Becton Dickinson). Typically 30,000 events were counted and recorded using CellQuest v1.1 software (Verity Software). Cell cycle distribution of the population was calculated using Modfit software (Verity Software) and expressed as percentage of cells with 2N (G0/G1), 2N-4N (S phase) and with 4N (G2/M) DNA content.

T2 sequence (Q96GD4 whole entry): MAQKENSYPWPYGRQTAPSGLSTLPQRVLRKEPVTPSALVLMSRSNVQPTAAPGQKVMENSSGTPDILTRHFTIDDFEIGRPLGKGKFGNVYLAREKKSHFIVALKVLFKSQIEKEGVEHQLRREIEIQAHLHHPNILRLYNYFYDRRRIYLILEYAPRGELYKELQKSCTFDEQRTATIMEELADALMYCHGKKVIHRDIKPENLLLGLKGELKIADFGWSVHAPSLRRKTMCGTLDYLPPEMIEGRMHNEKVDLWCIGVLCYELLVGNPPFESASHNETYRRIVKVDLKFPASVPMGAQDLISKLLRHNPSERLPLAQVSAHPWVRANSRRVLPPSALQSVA

SMILES: COc1cc2c(Nc3ncc(CC(=O)Nc4cccc(F)c4)s3)ncnc2cc1OCCCN1CCC[C@@H]1COP(=O)(O)O [Compound 2, ((2R)-1-(3-((4-((5-(2-((3-fluorophenyl)amino)-2-oxoethyl)-1,3-thiazol-2-yl)amino)-6-methoxyquinazolin-7-yl)oxy)propyl)pyrrolidin-2-yl)methyl dihydrogen phosphate]
- IC50 (Aurora-A): 10.2 nM
- IC50 (Aurora-B): 9 nM
- IC50 (SW620): 6 nM
- active at (cell cycle analysis, arrest of cells in specific phases) (SW620 cells): 20 nM
